According to US20250195468A1, “METHODS AND COMPOSITIONS FOR TREATING COLORECTAL CANCER WITH INDOXYL SULFATE” (National Institute of Immunology, priority 2023, published 2025):

Test system: Balb/c mice
Assay: Animal study: effect on normal colonic cells (organ length, body weight, histology, symptoms)
Conditions: control groups (negative / positive control), 12 weeks
Experimental: Wild-type Balb/c mice were obtained from Jackson Laboratory, USA, and housed in plastic cages with free access to water and food. The mice were randomly assigned to five test groups, which included three control groups: vehicle control, negative control (100 mM sodium propionate), and positive control (AOM (Azoxymethane)/DSS). Additionally, there were two experimental groups receiving 100 mM of indoxyl sulfate, one via intraperitoneal (IP) administration and the other via intrarectal (IR) administration. Each group consisted of six mice. In the AOM/DSS group, AOM was injected intraperitoneally at a dosage of 10 mg/kg bodyweight. The AOM was injected only once on the 1st day of experiment. The positive control mice received 2% DSS for 7 days in the first week, fourth week, and seventh week. […]
The colon was collected from each mouse for subsequent histology studies. […] Various parameters, including tumor localization (proximal or distal bowel, rectum, cecum, ileocecal valve), tumor number, cancer stage (dysplasia/adenoma or adenocarcinoma, determined by infiltration into the muscular mucosa), immune cell infiltration, and inflammation, were assessed. Bowel inflammation was evaluated by observing immune cell infiltration and the presence or absence of mucous membranes using a 10× objective. […]

CCC(=O)[O-].[Na+] [Propionate, sodium propionate]
Length of large intestine (mean ± SD): 9.98 ± 0.67 cm | Length of spleen (mean ± SD): 1.5 ± 0.08 cm
